Results reported in PubChem BioAssay AID1259407 (Chemical Carcinogenesis Research Information System (CCRIS), 2018).
The source made the active and inactive calls. The rule behind the calls is not given here.

Test system: CCRIS mutagenicity, Ames/micronucleus/aberration tests
Experiment: CCRIS mutagenicity studies

Measured: mutagenic call

CS(C)=O
inactive: End Point: IN VITRO CHROMOSOMAL ABERRATIONS, Test System: CHO-LB CELLS, Metabolic Activation: NONE inactive; negative | End Point: IN VITRO CHROMOSOMAL ABERRATIONS, Test System: CHO-LB CELLS, Metabolic Activation: RAT, LIVER, S-9, AROCLOR 1254 inactive; negative | Test System: AMES SALMONELLA TYPHIMURIUM, Strain/Indicator: TA97, Metabolic Activation: HAMSTER, LIVER, S-9, AROCLOR 1254 (10 OR 30%), Method: PREINCUBATION inactive; negative | Test System: AMES SALMONELLA TYPHIMURIUM, Strain/Indicator: TA97, Metabolic Activation: NONE, Method: PREINCUBATION inactive; negative | Test System: AMES SALMONELLA TYPHIMURIUM, Strain/Indicator: TA97, Metabolic Activation: NONE, Method: PREINCUBATION (20 MIN) inactive; negative | Test System: AMES SALMONELLA TYPHIMURIUM, Strain/Indicator: TA97, Metabolic Activation: NONE, Method: STANDARD PLATE inactive; negative | Test System: AMES SALMONELLA TYPHIMURIUM, Strain/Indicator: TA97, Metabolic Activation: RAT, LIVER, S-9, AROCLOR 1254 (10 OR 30%), Method: PREINCUBATION inactive; negative | Test System: AMES SALMONELLA TYPHIMURIUM, Strain/Indicator: TA97, Metabolic Activation: RAT, LIVER, S-9, AROCLOR 1254, Method: STANDARD PLATE inactive; negative | Test System: AMES SALMONELLA TYPHIMURIUM, Strain/Indicator: TA97, Metabolic Activation: RAT, LIVER, S-9, PHENOBARBITAL AND 5,6-BENZOFLAVONE, Method: PREINCUBATION (20 MIN) inactive; negative | Test System: AMES SALMONELLA TYPHIMURIUM, Strain/Indicator: TA98, Metabolic Activation: HAMSTER, LIVER, S-9, AROCLOR 1254 (10 OR 30%), Method: PREINCUBATION inactive; negative | Test System: AMES SALMONELLA TYPHIMURIUM, Strain/Indicator: TA98, Metabolic Activation: NONE, Method: FLUCTUATION (MICROTITER) inactive; negative | Test System: AMES SALMONELLA TYPHIMURIUM, Strain/Indicator: TA98, Metabolic Activation: NONE, Method: PREINCUBATION inactive; negative | Test System: AMES SALMONELLA TYPHIMURIUM, Strain/Indicator: TA98, Metabolic Activation: NONE, Method: PREINCUBATION (20 MIN) inactive; negative | Test System: AMES SALMONELLA TYPHIMURIUM, Strain/Indicator: TA98, Metabolic Activation: NONE, Method: STANDARD PLATE inactive; negative | Test System: AMES SALMONELLA TYPHIMURIUM, Strain/Indicator: TA98, Metabolic Activation: RAT LIVER S-9, AROCLOR 1254, Method: FLUCTUATION (MICROTITER) inactive; negative | Test System: AMES SALMONELLA TYPHIMURIUM, Strain/Indicator: TA98, Metabolic Activation: RAT, LIVER, S-9, AROCLOR 1254 (10 OR 30%), Method: PREINCUBATION inactive; negative | Test System: AMES SALMONELLA TYPHIMURIUM, Strain/Indicator: TA98, Metabolic Activation: RAT, LIVER, S-9, AROCLOR 1254, Method: STANDARD PLATE inactive; negative | Test System: AMES SALMONELLA TYPHIMURIUM, Strain/Indicator: TA98, Metabolic Activation: RAT, LIVER, S-9, PHENOBARBITAL AND 5,6-BENZOFLAVONE, Method: PREINCUBATION (20 MIN) inactive; negative | Test System: AMES SALMONELLA TYPHIMURIUM, Strain/Indicator: TA100, Metabolic Activation: HAMSTER, LIVER, S-9, AROCLOR 1254 (10 OR 30%), Method: PREINCUBATION inactive; negative | Test System: AMES SALMONELLA TYPHIMURIUM, Strain/Indicator: TA100, Metabolic Activation: NONE, Method: PREINCUBATION inactive; negative | Test System: AMES SALMONELLA TYPHIMURIUM, Strain/Indicator: TA100, Metabolic Activation: NONE, Method: PREINCUBATION (20 MIN) inactive; negative | Test System: AMES SALMONELLA TYPHIMURIUM, Strain/Indicator: TA100, Metabolic Activation: NONE, Method: STANDARD PLATE inactive; negative | Test System: AMES SALMONELLA TYPHIMURIUM, Strain/Indicator: TA100, Metabolic Activation: RAT, LIVER, S-9, AROCLOR 1254 (10 OR 30%), Method: PREINCUBATION inactive; negative | Test System: AMES SALMONELLA TYPHIMURIUM, Strain/Indicator: TA100, Metabolic Activation: RAT, LIVER, S-9, AROCLOR 1254, Method: STANDARD PLATE inactive; negative | Test System: AMES SALMONELLA TYPHIMURIUM, Strain/Indicator: TA100, Metabolic Activation: RAT, LIVER, S-9, PHENOBARBITAL AND 5,6-BENZOFLAVONE, Method: PREINCUBATION (20 MIN) inactive; negative | Test System: AMES SALMONELLA TYPHIMURIUM, Strain/Indicator: TA102, Metabolic Activation: NONE, Method: PREINCUBATION (20 MIN) inactive; negative | Test System: AMES SALMONELLA TYPHIMURIUM, Strain/Indicator: TA102, Metabolic Activation: RAT, LIVER, S-9, PHENOBARBITAL AND 5,6-BENZOFLAVONE, Method: PREINCUBATION (20 MIN) inactive; negative | Test System: AMES SALMONELLA TYPHIMURIUM, Strain/Indicator: TA104, Metabolic Activation: NONE, Method: PREINCUBATION (20 MIN) inactive; negative | Test System: AMES SALMONELLA TYPHIMURIUM, Strain/Indicator: TA104, Metabolic Activation: RAT, LIVER, S-9, PHENOBARBITAL AND 5,6-BENZOFLAVONE, Method: PREINCUBATION (20 MIN) inactive; negative | Test System: AMES SALMONELLA TYPHIMURIUM, Strain/Indicator: TA1535, Metabolic Activation: HAMSTER, LIVER, S-9, AROCLOR 1254 (10 OR 30%), Method: PREINCUBATION inactive; negative | Test System: AMES SALMONELLA TYPHIMURIUM, Strain/Indicator: TA1535, Metabolic Activation: NONE, Method: PREINCUBATION inactive; negative | Test System: AMES SALMONELLA TYPHIMURIUM, Strain/Indicator: TA1535, Metabolic Activation: NONE, Method: PREINCUBATION (20 MIN) inactive; negative
